Laboratory results taken from ChEMBL document CHEMBL3758169, “4-Aminoindazolyl-dihydrofuro[3,4-d]pyrimidines as non-covalent inhibitors of mutant epidermal growth factor receptor tyrosine kinase” (Bioorg Med Chem Lett, 2016).
Blank lines part the entries; values can stand above or below the compound they belong to.

Columns and labels:
[1] = target: Mitogen-activated protein kinase kinase kinase 9 (Homo sapiens) (UniProt P80192); test: Inhibition of MLK1 (unknown origin) at 100 nM
[2] = target: Serine/threonine-protein kinase Nek2 (Homo sapiens) (UniProt P51955); test: Inhibition of NEK2 (unknown origin) at 100 nM
[3] = target: Serine/threonine-protein kinase Nek4 (Homo sapiens) (UniProt P51957); test: Inhibition of NEK4 (unknown origin) at 100 nM
[4] = target: Serine/threonine-protein kinase PAK 3 (Homo sapiens) (UniProt O75914); test: Inhibition of PAK3 (unknown origin) at 100 nM
[5] = test system: Platelet-derived growth factor receptor alpha (Homo sapiens), P16234 [V561D]; test: Inhibition of PDGFRalpha V561D mutant (unknown origin) at 100 nM
[6] = target: Serine/threonine-protein kinase pim-1 (Homo sapiens) (UniProt P11309); test: Inhibition of PIM1 (unknown origin) at 100 nM
[7] = target: Serine/threonine-protein kinase D3 (Homo sapiens) (UniProt O94806); test: Inhibition of PKD3 (unknown origin) at 100 nM
[8] = target: Serine/threonine-protein kinase PLK1 (Homo sapiens) (UniProt P53350); test: Inhibition of PLK1 (unknown origin) at 100 nM
[9] = target: Ribosomal protein S6 kinase alpha-2 (Homo sapiens) (UniProt Q15349); test: Inhibition of RSK3 (unknown origin) at 100 nM
[10] = target: Ribosomal protein S6 kinase alpha-6 (Homo sapiens) (UniProt Q9UK32); test: Inhibition of RSK4 (unknown origin) at 100 nM
[11] = target: Proto-oncogene tyrosine-protein kinase receptor Ret (Homo sapiens) (UniProt P07949); test: Inhibition of RET (unknown origin) at 100 nM
[12] = target: Serine/threonine-protein kinase Sgk1 (Homo sapiens) (UniProt O00141); test: Inhibition of SGK1 (unknown origin) at 100 nM
[13] = target: STE20-like serine/threonine-protein kinase (Homo sapiens) (UniProt Q9H2G2); test: Inhibition of SLK (unknown origin) at 100 nM
[14] = target: SRSF protein kinase 1 (Homo sapiens) (UniProt Q96SB4); test: Inhibition of SRPK1 (unknown origin) at 100 nM
[15] = target: Serine/threonine-protein kinase TAO1 (Homo sapiens) (UniProt Q7L7X3); test: Inhibition of TAO1 (unknown origin) at 100 nM
[16] = target: Wee1-like protein kinase (Homo sapiens) (UniProt P30291); test: Inhibition of WEE1 (unknown origin) at 100 nM
[17] = target: Serine/threonine-protein kinase 25 (Homo sapiens) (UniProt O00506); test: Inhibition of YSK1 (unknown origin) at 100 nM
[18] = target: Mitogen-activated protein kinase 13 (Homo sapiens) (UniProt O15264); test: Inhibition of p38delta(unknown origin) at 100 nM
[19] = target: Activin receptor type-2B (Homo sapiens) (UniProt Q13705); test: Inhibition of ACVR2B (unknown origin) at 100 nM
[20] = target: RAC-beta serine/threonine-protein kinase (Homo sapiens) (UniProt P31751); test: Inhibition of AKT2 (unknown origin) at 100 nM
[21] = target: NUAK family SNF1-like kinase 1 (Homo sapiens) (UniProt O60285); test: Inhibition of ARK5 (unknown origin) at 100 nM
[22] = target: Tyrosine-protein kinase receptor UFO (Homo sapiens) (UniProt P30530); test: Inhibition of AXL (unknown origin) at 100 nM
[23] = target: Serine/threonine-protein kinase BRSK1 (Homo sapiens) (UniProt Q8TDC3); test: Inhibition of BRSK1 (unknown origin) at 100 nM
[24] = target: CDK9/cyclin T1 (Homo sapiens) (UniProt O60563+P50750); test: Inhibition of CDK9/cyclinT1 (unknown origin) at 100 nM; assay type: protein-complex assay
[25] = target: Serine/threonine-protein kinase Chk2 (Homo sapiens) (UniProt O96017); test: Inhibition of CHK2 (unknown origin) at 100 nM
[26] = target: Casein kinase I isoform epsilon (Homo sapiens) (UniProt P49674); test: Inhibition of CK1epsilon1 (unknown origin) at 100 nM
[27] = target: Casein kinase I isoform gamma-3 (Homo sapiens) (UniProt Q9Y6M4); test: Inhibition of CK1gamma3 (unknown origin) at 100 nM
[28] = target: Casein kinase II subunit alpha (Homo sapiens) (UniProt P68400); test: Inhibition of CK2alpha1 (unknown origin) at 100 nM
[29] = target: Calcium/calmodulin-dependent protein kinase type II subunit beta (Homo sapiens) (UniProt Q13554); test: Inhibition of CaMKIIbeta (unknown origin) at 100 nM
[30] = target: Calcium/calmodulin-dependent protein kinase type II subunit delta (Homo sapiens) (UniProt Q13557); test: Inhibition of CamKIIdelta (unknown origin) at 100 nM
[31] = target: Calcium/calmodulin-dependent protein kinase type IV (Homo sapiens) (UniProt Q16566); test: Inhibition of CamKIV (unknown origin) at 100 nM
[32] = target: Dual specificity tyrosine-phosphorylation-regulated kinase 3 (Homo sapiens) (UniProt O43781); test: Inhibition of DYRK3 (unknown origin) at 100 nM
[33] = target: Ephrin type-A receptor 4 (Homo sapiens) (UniProt P54764); test: Inhibition of EPHA4 (unknown origin) at 100 nM
[34] = target: Receptor tyrosine-protein kinase erbB-2 (Homo sapiens) (UniProt P04626); test: Inhibition of ERBB2 (unknown origin) at 100 nM
[35] = test system: Fibroblast growth factor receptor 3 (Homo sapiens), P22607 [K650E]; test: Inhibition of FGFR3 K650E mutant (unknown origin) at 100 nM
[36] = target: Tyrosine-protein kinase Fer (Homo sapiens) (UniProt P16591); test: Inhibition of FER (unknown origin) at 100 nM
[37] = target: Tyrosine-protein kinase Fes/Fps (Homo sapiens) (UniProt P07332); test: Inhibition of FES (unknown origin) at 100 nM
[38] = target: Homeodomain-interacting protein kinase 1 (Homo sapiens) (UniProt Q86Z02); test: Inhibition of HIPK1 (unknown origin) at 100 nM
[39] = target: Homeodomain-interacting protein kinase 2 (Homo sapiens) (UniProt Q9H2X6); test: Inhibition of HIPK2 (unknown origin) at 100 nM
[40] = target: Interleukin-1 receptor-associated kinase 1 (Homo sapiens) (UniProt P51617); test: Inhibition of IRAK1 (unknown origin) at 100 nM
[41] = target: Mitogen-activated protein kinase 9 (Homo sapiens) (UniProt P45984); test: Inhibition of JNK2 (unknown origin) at 100 nM
[42] = test system: Mast/stem cell growth factor receptor Kit (Homo sapiens), P10721 [V654A]; test: Inhibition of KIT V654A mutant (unknown origin) at 100 nM
Hepatocyte = test: Drug metabolism in rat hepatocytes assessed as glucuronidation; assay type: ADME, cell-based

Sequence of RAC-beta serine/threonine-protein kinase (Homo sapiens) (P31751 whole entry): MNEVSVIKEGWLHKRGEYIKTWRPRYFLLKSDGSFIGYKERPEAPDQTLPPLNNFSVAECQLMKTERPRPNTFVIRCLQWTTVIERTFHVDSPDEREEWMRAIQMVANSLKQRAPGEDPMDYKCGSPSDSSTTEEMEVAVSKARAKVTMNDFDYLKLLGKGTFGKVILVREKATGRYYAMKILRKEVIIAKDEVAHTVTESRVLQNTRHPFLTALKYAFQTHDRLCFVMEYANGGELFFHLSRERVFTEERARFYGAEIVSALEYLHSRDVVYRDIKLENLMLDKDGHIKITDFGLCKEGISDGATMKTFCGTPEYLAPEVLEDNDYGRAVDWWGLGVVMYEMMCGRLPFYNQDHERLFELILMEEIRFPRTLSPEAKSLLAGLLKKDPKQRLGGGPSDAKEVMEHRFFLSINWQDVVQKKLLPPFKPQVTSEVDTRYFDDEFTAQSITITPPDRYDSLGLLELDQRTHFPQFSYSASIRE
Sequence of Casein kinase I isoform gamma-3 (Homo sapiens) (Q9Y6M4 whole entry, looked up, canonical isoform): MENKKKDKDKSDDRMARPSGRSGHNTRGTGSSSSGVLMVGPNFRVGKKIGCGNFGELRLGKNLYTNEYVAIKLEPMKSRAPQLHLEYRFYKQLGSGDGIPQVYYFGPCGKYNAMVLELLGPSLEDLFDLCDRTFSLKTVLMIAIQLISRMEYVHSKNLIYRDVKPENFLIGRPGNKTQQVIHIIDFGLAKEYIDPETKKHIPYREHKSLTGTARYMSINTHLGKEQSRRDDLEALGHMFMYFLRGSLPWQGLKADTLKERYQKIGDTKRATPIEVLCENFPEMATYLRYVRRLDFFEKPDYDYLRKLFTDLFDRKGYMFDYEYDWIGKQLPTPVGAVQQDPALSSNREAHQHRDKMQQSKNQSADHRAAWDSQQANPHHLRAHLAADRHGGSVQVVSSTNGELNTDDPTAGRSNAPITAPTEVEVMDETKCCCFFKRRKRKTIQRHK
Sequence of Receptor tyrosine-protein kinase erbB-2 (Homo sapiens) (P04626 whole entry): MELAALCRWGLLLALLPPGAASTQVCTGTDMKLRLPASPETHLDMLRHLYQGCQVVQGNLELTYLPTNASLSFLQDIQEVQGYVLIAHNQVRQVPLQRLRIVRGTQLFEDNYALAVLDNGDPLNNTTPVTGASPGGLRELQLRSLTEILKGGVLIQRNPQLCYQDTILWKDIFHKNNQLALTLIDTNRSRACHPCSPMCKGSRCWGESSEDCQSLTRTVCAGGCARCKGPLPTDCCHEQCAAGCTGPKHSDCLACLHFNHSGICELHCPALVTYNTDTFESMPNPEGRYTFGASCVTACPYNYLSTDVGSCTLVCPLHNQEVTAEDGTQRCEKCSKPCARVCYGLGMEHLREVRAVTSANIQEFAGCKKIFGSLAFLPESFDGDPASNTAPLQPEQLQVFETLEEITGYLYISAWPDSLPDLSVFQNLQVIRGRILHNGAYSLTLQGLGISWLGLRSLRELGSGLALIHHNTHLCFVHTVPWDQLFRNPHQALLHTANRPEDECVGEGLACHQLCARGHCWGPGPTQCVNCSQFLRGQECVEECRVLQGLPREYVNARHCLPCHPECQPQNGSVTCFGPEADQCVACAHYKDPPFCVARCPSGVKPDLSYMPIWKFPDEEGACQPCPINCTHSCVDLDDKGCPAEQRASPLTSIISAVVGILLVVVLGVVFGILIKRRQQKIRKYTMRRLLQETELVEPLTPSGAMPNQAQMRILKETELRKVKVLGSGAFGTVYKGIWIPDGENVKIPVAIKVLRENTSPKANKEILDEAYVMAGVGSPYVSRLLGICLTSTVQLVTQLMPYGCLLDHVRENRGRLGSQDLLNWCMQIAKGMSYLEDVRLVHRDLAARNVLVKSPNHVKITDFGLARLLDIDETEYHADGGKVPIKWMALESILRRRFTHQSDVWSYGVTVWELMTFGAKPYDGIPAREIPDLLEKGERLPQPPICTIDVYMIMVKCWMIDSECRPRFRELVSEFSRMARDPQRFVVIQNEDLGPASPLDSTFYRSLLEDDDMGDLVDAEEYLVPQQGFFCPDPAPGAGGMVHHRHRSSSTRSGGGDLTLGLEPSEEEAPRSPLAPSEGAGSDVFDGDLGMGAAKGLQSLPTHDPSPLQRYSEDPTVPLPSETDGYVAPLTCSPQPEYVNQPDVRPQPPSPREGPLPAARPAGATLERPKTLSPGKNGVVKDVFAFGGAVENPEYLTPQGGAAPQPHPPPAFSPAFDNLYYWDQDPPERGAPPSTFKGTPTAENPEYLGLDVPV
Sequence of Activin receptor type-2B (Homo sapiens) (Q13705 whole entry): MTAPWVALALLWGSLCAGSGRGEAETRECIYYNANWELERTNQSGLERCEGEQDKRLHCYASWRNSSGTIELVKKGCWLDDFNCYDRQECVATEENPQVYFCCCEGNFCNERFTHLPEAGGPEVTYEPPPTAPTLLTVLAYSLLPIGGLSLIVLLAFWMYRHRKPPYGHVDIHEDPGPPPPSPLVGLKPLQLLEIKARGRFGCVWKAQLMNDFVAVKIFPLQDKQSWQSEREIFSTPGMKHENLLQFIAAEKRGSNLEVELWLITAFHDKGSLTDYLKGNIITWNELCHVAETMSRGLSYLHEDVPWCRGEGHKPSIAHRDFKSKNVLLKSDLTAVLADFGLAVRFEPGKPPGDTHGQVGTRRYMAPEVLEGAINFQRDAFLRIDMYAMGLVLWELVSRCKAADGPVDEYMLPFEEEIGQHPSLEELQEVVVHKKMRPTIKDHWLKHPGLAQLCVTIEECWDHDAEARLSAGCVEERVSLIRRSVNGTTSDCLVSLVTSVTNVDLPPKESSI
Sequence of Proto-oncogene tyrosine-protein kinase receptor Ret (Homo sapiens) (P07949 whole entry): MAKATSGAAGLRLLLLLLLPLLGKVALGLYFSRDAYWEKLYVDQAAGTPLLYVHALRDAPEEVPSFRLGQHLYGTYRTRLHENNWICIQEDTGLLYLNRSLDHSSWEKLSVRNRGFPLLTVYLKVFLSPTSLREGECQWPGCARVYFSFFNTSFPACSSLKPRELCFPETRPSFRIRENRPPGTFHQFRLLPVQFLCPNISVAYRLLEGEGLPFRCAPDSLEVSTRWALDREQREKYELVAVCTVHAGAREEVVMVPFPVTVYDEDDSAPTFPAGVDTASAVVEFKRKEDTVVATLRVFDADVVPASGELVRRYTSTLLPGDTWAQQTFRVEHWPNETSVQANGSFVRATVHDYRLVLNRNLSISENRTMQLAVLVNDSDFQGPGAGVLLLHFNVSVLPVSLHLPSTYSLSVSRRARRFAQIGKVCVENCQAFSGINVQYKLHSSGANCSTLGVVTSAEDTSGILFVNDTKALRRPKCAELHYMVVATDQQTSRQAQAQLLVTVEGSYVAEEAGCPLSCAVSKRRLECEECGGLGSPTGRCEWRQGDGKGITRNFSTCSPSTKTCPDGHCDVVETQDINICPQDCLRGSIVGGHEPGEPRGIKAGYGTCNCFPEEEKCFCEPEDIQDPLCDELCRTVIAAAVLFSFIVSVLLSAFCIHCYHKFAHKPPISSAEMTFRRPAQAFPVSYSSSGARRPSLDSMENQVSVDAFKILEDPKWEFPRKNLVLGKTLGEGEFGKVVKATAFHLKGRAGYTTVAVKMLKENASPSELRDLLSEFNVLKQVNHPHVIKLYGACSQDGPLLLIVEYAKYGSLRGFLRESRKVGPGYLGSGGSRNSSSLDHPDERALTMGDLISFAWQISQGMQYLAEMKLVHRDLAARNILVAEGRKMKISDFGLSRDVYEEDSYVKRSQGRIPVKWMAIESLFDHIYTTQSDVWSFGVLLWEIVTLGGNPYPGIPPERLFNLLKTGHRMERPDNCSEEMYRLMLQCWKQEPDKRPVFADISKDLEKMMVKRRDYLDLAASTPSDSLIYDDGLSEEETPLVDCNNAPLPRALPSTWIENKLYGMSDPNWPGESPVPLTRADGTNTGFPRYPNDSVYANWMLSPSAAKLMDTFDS
Sequence of Ephrin type-A receptor 4 (Homo sapiens) (P54764 whole entry): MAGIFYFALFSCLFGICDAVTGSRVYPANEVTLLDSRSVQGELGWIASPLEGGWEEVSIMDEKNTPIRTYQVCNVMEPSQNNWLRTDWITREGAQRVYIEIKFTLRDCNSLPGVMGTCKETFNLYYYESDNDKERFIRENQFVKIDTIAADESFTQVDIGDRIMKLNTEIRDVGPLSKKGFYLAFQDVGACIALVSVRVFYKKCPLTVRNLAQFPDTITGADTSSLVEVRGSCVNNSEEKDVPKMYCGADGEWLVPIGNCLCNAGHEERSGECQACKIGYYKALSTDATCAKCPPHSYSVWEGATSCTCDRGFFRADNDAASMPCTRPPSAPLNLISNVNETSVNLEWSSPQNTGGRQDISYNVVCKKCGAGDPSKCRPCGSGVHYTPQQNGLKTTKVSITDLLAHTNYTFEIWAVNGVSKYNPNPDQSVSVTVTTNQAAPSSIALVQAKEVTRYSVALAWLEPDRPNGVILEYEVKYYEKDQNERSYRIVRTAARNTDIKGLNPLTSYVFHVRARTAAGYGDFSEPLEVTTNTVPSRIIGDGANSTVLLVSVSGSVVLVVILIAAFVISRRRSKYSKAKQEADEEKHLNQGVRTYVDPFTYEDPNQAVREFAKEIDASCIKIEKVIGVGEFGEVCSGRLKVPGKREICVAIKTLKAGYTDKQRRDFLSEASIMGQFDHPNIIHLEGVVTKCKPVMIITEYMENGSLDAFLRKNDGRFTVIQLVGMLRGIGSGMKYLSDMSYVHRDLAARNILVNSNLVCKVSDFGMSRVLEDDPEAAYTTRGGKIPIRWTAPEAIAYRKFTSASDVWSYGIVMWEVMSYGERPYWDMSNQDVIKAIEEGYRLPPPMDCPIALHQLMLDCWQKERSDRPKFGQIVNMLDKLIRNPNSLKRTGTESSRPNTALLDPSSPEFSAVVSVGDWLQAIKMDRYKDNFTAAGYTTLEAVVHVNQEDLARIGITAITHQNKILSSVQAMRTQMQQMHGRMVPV

- inhibition [1]: 2.9%
- inhibition [2]: 7.7%
- inhibition [3]: 2%
- inhibition [4]: 8.9%
- inhibition [5]: 89.2%
- inhibition [6]: -7.1%
- inhibition [7]: 19%
- inhibition [8]: 4.9%
- inhibition [9]: 7.4%
- inhibition [10]: 9.8%
- inhibition [11]: 98.2%
- inhibition [12]: -5.2%
- inhibition [13]: 66%
- inhibition [14]: 3.9%
- inhibition [15]: 0.7%
- inhibition [16]: 36.1%
- inhibition [17]: 5.1%
- inhibition [18]: 8.6%
- inhibition [19]: 96.8%
- inhibition [20]: 8.8%
- inhibition [21]: 11.6%
- inhibition [22]: -2.2%
- inhibition [23]: 1.7%
- inhibition [24]: -6.1%
- inhibition [25]: -1.3%
- inhibition [26]: 5.1%
- inhibition [27]: 1.8%
- inhibition [28]: 1.4%
- inhibition [29]: 11.2%
- inhibition [30]: -4.2%
- inhibition [31]: 15%
- inhibition [32]: -3.5%
- inhibition [33]: 23.1%
- inhibition [34]: 57.2%
- inhibition [35]: 38.8%
- inhibition [36]: 6.9%
- inhibition [37]: 6%
- inhibition [38]: -2%
- inhibition [39]: 1.3%
- inhibition [40]: 2.2%
- inhibition [41]: 44.8%
- inhibition [42]: 1.1%
Structure (SMILES): CC1(C)OCc2c(Nc3n[nH]c4ccccc34)nc(-c3cn[nH]c3)nc21

- Drug metabolism (Hepatocyte): metabolite_detected
Structure (SMILES): CC1(C)OCc2c(Nc3n[nH]c4c(Cl)cccc34)nc(-c3cn[nH]c3)nc21
